Data set [1] is described as follows: Ligand protonation constants, potentiometric titrations. It is filed as physicochemical. An excerpt:
The metal affinity of a ligand depends on its acid-base properties; therefore, the protonation equilibria of […] and […] were first investigated. The proton-dissociation processes of the ligands were followed by potentiometric titrations in the pH range 2-11. The hydrolytic stability of the ligands was monitored by a second titration of the same sample with NaOH, following back-acidification of the initially titrated sample. […] As was previously reported in the example of α- and β-alanine hydroxamic acids, the amino group may be more acidic than the hydroxamic group, or vice versa. […] However, such a precise analysis is not needed for the determination of the stability of […]-metal complexes and therefore was not performed. […] The potentiometric titrations of ligands and their complexes were carried out using a Titrando 905 (Metrohm) automatic titrator system, equipped with a combined glass electrode (Mettler Toledo, InLab Semi-Micro, with […] Polymer filling) and a 800 Dosino dosing system, equipped with a a 2 mL micro buret. The ionic strength was fixed at I = 0.1 M with NaClO4. The electrode was calibrated daily in terms of hydrogen ion concentration using HClO4 (0.1 M) with CO2-free NaOH solutions (0.1 M).[76] A stream of high-purity argon, presaturated with water vapor, was passed over the surface of the solution cell, the cell was filled with 50 mL of the studied solution, and the system was thermostated at 25.0 ± 0.2 °C. At least three titrations were performed for each system, with a starting concentration of the ligand of 1 mM and a 1:1 metal to ligand molar ratio with a 10% excess of the ligand in the pH range 2-11. The purity and exact concentration of the ligand solutions were determined using the Gran method.[77] Special care was taken to ensure that complete equilibration was attained. […] The potentiometric data were refined with the […][78] and […][79] programs, which use nonlinear least-squares methods.

A short description of data set [2]: Fe(III)–Ga(III) metal–metal competition UV–vis titrations. Format: physicochemical. The note with it: Ga(III)-L + Fe(III) competition titration, pH 1.5; judged to carry a greater error, not retained. As to the method: Assuming the domination of the [GaHL1]^+ complex below pH 2, its stability was determined by metal–metal competition titrations, (i) Fe(III)-H3L1 + Ga(III) and (ii) Ga(III)-H3L1 + Fe(III), both performed at pH 1.5. This pH was chosen in order to prevent the hydrolysis of the free metal ions and decomposition of the ligand, which is common for hydroxamic acids at a very acidic pH.[37],[51] Upon addition of Ga(III) (up to 600 equiv) to the Fe(III)-H3L1 solution, the UV–vis band of [FeHL1]^+ (λmax = 470 nm, Figure 2a) slowly disappeared as a result of the [GaHL1]^+ complex formation. […]
For the Ga(III)-H4L2 system, [GaH2L2]^+ was assumed to be the most abundant species at pH 1.5, and its stability was again determined via (i) Fe(III)-H4L2 + Ga(III) and (ii) Ga(III)-H4L2 + Fe(III) titrations (Figure S8). […]
For the Ga(III)-H3L4 system, [GaHL4]^+ was assumed to be the major complex at pH 1.5, and its stability was determined via an Fe(III)-H3L4 + Ga(III) competition titration (Figure S9). […]
In order to calculate the stability constants of the investigated complexes, several competitive titrations were performed. […] After preparation, each solution was allowed to equilibrate for about 1 h, and then its UV–vis spectrum was recorded. The vials were kept in the dark, and the absorbance was measured again after 24, 48, and 120 h. […]

The mark [3] stands for this setting: potentiometric titrations, 25 °C, I = 0.1 M NaClO4.

Data on two compounds can be found in article PMC8424644, “Thermodynamic Stability and Speciation of Ga(III) and Zr(IV) Complexes with High-Denticity Hydroxamate Chelators” (Inorganic Chemistry, 2021).

Marks after values point to notes of the source that are not given here.

Take `N[C@H]1CCCCNC(=O)CCCN(O)C(=O)CCCNC(=O)CCCN(O)C(=O)CCCNC(=O)CCCN(O)C(=O)CCCNC(=O)CCCN(O)C(=O)CCCNC1=O` [H4L2, (S)-43-Amino-6,16,26,36-tetrahydroxy-1,6,11,16,21,26,31,36,41-nonaazacycloheptatetracontane-2,7,12,17,22,27,32,37,42-nonaone]: the “protonation constant of the amino group (log K)” value in data set [1] (not detectable in the experimental pH range 2–11, assumed on the basis of DFOB) is on record as more than 11. In data set [1] (setting [3]), the “log K LH2 (ligand protonation)” value is given as 9.59 ^d, the “log K LH3 (ligand protonation)” value is on record as 8.94 ^d, the “log K LH4 (ligand protonation)” value was 8.18 ^d and the “log K LH (ligand protonation)” value is recorded as 10.06 ^d. For the same compound, in data set [1] (setting [3]), the “log β LH2 (ligand protonation)” value is 19.65(1) ^d, the “log β LH3 (ligand protonation)” value is recorded as 28.59(1) ^d, the “log β LH4 (ligand protonation)” value is on record as 36.77(1) ^d and the “log β LH (ligand protonation)” value is 10.06(1) ^d. For the same compound, the “log β [GaH2L]” value in data set [2] was 39.06(4).
As to `O=C1CCCN(O)C(=O)CCCNC(=O)CCCN(O)C(=O)CCCNC(=O)CCCN(O)C(=O)CCCN1` [H3L1, 1,11,21-Trihydroxy-1,6,11,16,21,26-hexaazacyclotriacontane-2,7,12,17,22,27-hexaone], in data set [1] (setting [3]), the “log K LH2 (ligand protonation)” value was 9.24 ^d, the “log K LH3 (ligand protonation)” value is recorded as 8.31 ^d, the “log K LH (ligand protonation)” value was 9.89 ^d and the “log β LH2 (ligand protonation)” value was 19.13(1) ^d. In data set [1] (setting [3]), the “log β LH3 (ligand protonation)” value is reported as 27.44(1) ^d and the “log β LH (ligand protonation)” value is 9.89(1) ^d. For the same compound, the “log β [GaHL]” value in data set [2] was 28.3(6).
